The source of these data is PMC3357308 (Diabetes, 2012).

Data set [1] relates to 11βHSD1. The note with it: in vivo, d4-cortisol tracer; cited from earlier work.
Data set [2] deals with 11β-reductase and 11β-dehydrogenase activities. Description: Cortisol/cortisone interconversion in subcutaneous adipose and skeletal muscle. The note with it: arteriovenous difference adjusted for blood flow, n = 6; for Ra (net Ra for cortisone), skeletal muscle release: forearm. Format: in vivo, human.
Data set [3] has as its target T1, human 11βHSD1 (Homo sapiens, UniProt P28845). Description: Competition with [3H]2-cortisone in HEK293/h11βHSD1 cells. The note with it: [3H]2-cortisone 5 nmol/L, competitor 0–4,955 nmol/L, 6–24 h. Format: cell-based.
Data set [4] relates to 11β-dehydrogenase. Put plainly: Primed 3-h d2-cortisone infusion before and after licorice. The note with it: without licorice, whole body, steady state, n = 3.
Data set [5] relates to 11β-dehydrogenase. Particulars: extrapolated from generation of d3-cortisone, non–steady-state, adjusted for substrate concentration and volume of distribution; cited from earlier work.
Data set [6] relates to 11β-reductase and 11β-dehydrogenase activities. Description: Cortisol/cortisone interconversion in the splanchnic circulation. Format: in vivo, human. Particulars: adjusted for hepatic blood flow, n = 4.
In data set [7] the target is T1, human 11βHSD1. Format: cell-based. The note with it: HEK293/h11βHSD1 cells, substrate 2 μmol/L, 1–24 h, n = 6.
The nature of data set [8]: In vivo pharmacokinetics of d2-cortisone after intravenous bolus. Details: species or system human. Particulars: iv bolus 141 μg.

T1 sequence (P28845 whole entry, the tested form may be a part): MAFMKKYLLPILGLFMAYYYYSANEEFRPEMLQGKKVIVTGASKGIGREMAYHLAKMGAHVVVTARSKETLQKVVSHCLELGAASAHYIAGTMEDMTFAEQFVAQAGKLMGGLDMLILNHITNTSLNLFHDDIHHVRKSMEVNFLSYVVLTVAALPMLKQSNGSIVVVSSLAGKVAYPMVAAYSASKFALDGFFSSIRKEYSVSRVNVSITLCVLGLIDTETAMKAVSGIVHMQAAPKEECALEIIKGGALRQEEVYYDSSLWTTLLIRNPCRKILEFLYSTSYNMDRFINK

`C[C@]12CCC(=O)C=C1CC[C@@H]1[C@@H]2[C@@H](O)C[C@@]2(C)[C@H]1CC[C@]2(O)C(=O)CO` [cortisol]: the “cortisol released by subcutaneous adipose 11βHSD1” value in data set [1] is on record as approximately 15 pmol/100 g tissue/min. The “Ra (net Ra for cortisone), skeletal muscle release” value (from here on “Ra … skeletal muscle release”) in data set [2] came out at 19.7 ± 4.1 pmol/100 mL/min.

With `C[C@]12CCC(=O)C=C1CC[C@@H]1[C@@H]2C(=O)C[C@@]2(C)[C@H]1CC[C@]2(O)C(=O)CO` [cortisone], the “Vmax for formation of [3H]2-cortisol in the presence of the steroid” value in data set [3] was 0.73 ± 0.26 pmol/10^5 cells/min. Also, the “Net Ra of cortisone” value in data set [4] is recorded as 36 nmol/min. Besides, in data set [2], the “Ra (net Ra for cortisone), subcutaneous adipose release” value was found to be 38.7 ± 5.8 pmol/100 g/min and the “Ra … skeletal muscle release” value was 15.2 ± 5.8 pmol/100 mL/min. For the same compound, the cortisone production rate in data set [5] was 24 nmol/min. For the same compound, in data set [6], the “Ra (net Ra for cortisone), splanchnic release” value is given as 19.5 ± 2.8 nmol/min. In data set [7], the “production of d2-cortisol or cortisol from the substrate” value is 0.41 ± 0.15 pmol/10^5 cells/min.

With `[2H]C1C(=O)C=C2CC[C@H]3[C@@H]4CC[C@](O)(C(=O)CO)[C@@]4(C)CC(=O)[C@@H]3[C@@]2(C)C1[2H]` (some centres unmarked) [d2-cortisone, 1,2-[^2H]2-Cortisone], the “Vmax for formation of [3H]2-cortisol in the presence of the steroid” value in data set [3] is given as 0.83 ± 0.34 pmol/10^5 cells/min. In addition, the “time tracer could be detected after injection” value in data set [8] (blood) turned out to be 1.5 h. For the same compound, the “area under the curve” value in data set [8] (n = 3) stood at 494 nmol/L per min. In addition, in data set [7], the “production of d2-cortisol or cortisol from the substrate” value was found to be 0.17 ± 0.05 pmol/10^5 cells/min.

With `[2H]C1([2H])[C@H](O)[C@@]2([2H])[C@@H](CCC3=CC(=O)CC[C@@]32C)[C@@H]2CC[C@](O)(C(=O)CO)[C@]21C` [d3-cortisol], the “Ra … skeletal muscle release” value in data set [2] turned out to be 5.9 ± 1.8 pmol/100 mL/min.
